Where a name gives a salt, the structure may show the parent alone. Read-outs that look alike come from different tables or passages of the source. One block for each compound: values may come before it.
Experiments:
[1] = oral; cited from earlier work
[2] = vehicle 30 min before, listed as Imatinib alone
[3] = imatinib 50 mg/kg oral, vehicle 30 min before
[4] = imatinib 50 mg/kg oral, vehicle 30 min before; remark: listed apart in the source
[5] = in vivo; details: Balb/C, mouse, liver, po, 50 mg/kg
[6] = in vivo; details: Balb/C, mouse, plasma, po, 50 mg/kg
[7] = in vivo; details: Balb/C, mouse, brain, po, 50 mg/kg
[8] = system: drug efflux; set-up: method as in PMID 11212278; details: cited from earlier work
[9] = system: ABCB1 in CD56+ lymphocytes; details: healthy volunteers, tariquidar 2 mg/kg i.v. or ≥ 200 mg orally; cited from earlier work
[10] = elacridar with imatinib 12.5 mg/kg vs imatinib alone; cited from earlier work
[11] = listed as imatinib plus vehicle

Plasma Cmax ([2]; imatinib 50 mg/kg oral gavage, mean, n = 3 per time point): 5,710.5 ng/mL
Plasma AUC0–24 ([2]; imatinib 50 mg/kg oral): 12,167.5 hr*ng/mL
Liver AUC0–24 [3]: 68,330.8 hr*ng/g
Liver AUC0–24 (text) [3]: 68,331 hr*ng/mL
Liver Cmax ([3]; listed as Imatinib alone): 26,279.7 ng/g
Liver Cmax [3, 11]: 26,280 ng/g
Brain AUC0–4 [4]: 574.23 ng·h/g
Brain Cmax (corrected for brain vascular space) ([4]; listed as Imatinib alone): 194.7 ng/g
Brain Cmax (corrected for brain vascular space) [4, 11]: 195 ng/g
Tmax [5]: 15 min
Tmax [6]: 10.2 min
AUC(0-t) ([6]; Plasma AUC0–24, imatinib 50 mg/kg oral, vehicle 30 min before): 12200 ng·h/mL
Cmax ([6]; Plasma Cmax, imatinib 50 mg/kg oral gavage, vehicle 30 min before, mean, n = 3 per time point): 5710 ng/mL
Tmax [7]: 120 min
SMILES: Cc1ccc(NC(=O)c2ccc(CN3CCN(C)CC3)cc2)cc1Nc1nccc(-c2cccnc2)n1 [Imatinib, Imatinib mesylate]
Bioavailability [1]: approximately 98%

SMILES: COc1cc2c(cc1OC)CN(CCc1ccc(NC(=O)c3cc(OC)c(OC)cc3NC(=O)c3cnc4ccccc4c3)cc1)CC2 [Tariquidar]
Persistence of inhibitory effect on drug efflux in vitro [8]: persists for over two hours
Duration of 100% inhibition of ABCB1 in CD56+ lymphocytes [9]: over 24 hours
Inhibition of ABCB1 in CD56+ lymphocytes [9]: 100%

SMILES: COc1cc2c(cc1OC)CN(CCc1ccc(NC(=O)c3cccc4c(=O)c5cccc(OC)c5[nH]c34)cc1)CC2 [elacridar]
Fold increase in brain-to-plasma concentration ratio of imatinib [10]: 9.3 fold

Source: article PMC2717937 (Journal of Experimental & Clinical Cancer Research : CR, 2009)
